What all share (type): in vivo
One test concerns 4T1 cells. The test is described as follows: 4T1-BALB/c mouse breast tumor model, immunization and tumor challenge. The settings on record: for tumor retardation: gene vaccines, three immunizations, subcutaneous 2×10^3 4T1 cells, vs mock. As to the method: BALB/c and C57BL/6 mice were from Charles River Laboratories or Jackson Laboratories. […] Tumor volumes were measured and calculated by (Length^2×Width/2) daily after the size was larger than 1 mm^3. Breeding pairs of BALB-neuT and FVB-neuN (FVB/N-Tg (MMTVneu) 202Mul) mice were obtained from Joseph Lustgarten, Mayo Clinic Arizona. Mice were monitored weekly for the tumor incidence after tumor size reached 1 mm^3. All experiments were performed in accordance with protocols approved by the Institutional Animal Care and Use Committee of Arizona State University. Statistical significance of differences was analyzed by a Student t-test.
The DNA fragments encoding FS peptides were cloned as a C-terminal fusion into the genetic immunization vectors pCMVi-UB (26) and pCMVi-LSrCOMPTT (27, 28) with the Bgl II and Hind III and mixed with 1:1 ratio as the vaccine antigen. Three adjuvants were encoded by genetic immunization vectors. The pCMVi-mGM-CSF vector expresses the adjuvant mouse granulocyte/macrophage colony-stimulating factor (mGM-CSF) under control of the human cytomegalovirus (CMV) promoter (27). […]. Vectors pCMVi-UB, pCMVi-LSrCOMPTT, pCMVi-LTA (also called pCMVi-LS-LTA-R192G) and pCMVi-LTB are available from the PSI:Biology-Materials Repository DNASU (dnasu.org) at Arizona State University. Additional adjuvants were the class A CpG 2216 single-stranded oligodeoxynucleotide obtained from Sigma and alum from Pierce.
Bullets for biolistic genetic immunization used the gold micronanoplex approach and were prepared as described (30) with the following changes. Two grams of 1-micron gold was used. Prior to addition of N-hydroxysuccinimide and N-(3-dimethylaminopropyl)-N′-ethylcarbodiimide hydrochloride, the gold was resuspended in 20 mL of a 0.1 M solution of 2-(N-morpholino) ethanesulfonic acid (MES), pH 6.0. DNA-gold micronanoplexes were prepared by combining, per bullet, 57 μL of cysteamine-gold solution with precipitated DNA (≤10 μg) that had been resuspended in ≤15 μL of water, and then vortexing for 10 min. To the DNA-cysteamine-gold was added 6 μL/bullet of a freshly made solution of PEI-micron gold (167 mg/mL in 0.1 M MES, pH 6, without NaCl). The pelleted micronanoplexes were washed with ethanol prior to resuspension in n-butanol (55 μL/bullet), followed by bullet formation under nitrogen gas.
For the three MS FS experiments, all mice (n=10 per group) were genetically immunized in the ear by Gene Gun at 8 weeks of age (2 shots/mouse, 60 ng pooled antigens plus 0.25 μg LTAB and 2.5 μg CpG2216 as the adjuvant for each shot) and boosted twice (two days apart) in three weeks with 1 μg pooled antigens plus the same adjuvants dosage. All mice were boosted again in two weeks with 50 μg KLH conjugated MS FS peptides with 50 μg CpG 2216 and 50 ul alum in total 100 ul PBS. […]

The test system of test [1] is BALB-NeuT mouse breast tumor. The test is described as follows: BALB-NeuT transgenic mouse mammary cancer model, tumor free curve. The settings on record: Mantal-Cox test. The procedure:
BALB/c and C57BL/6 mice were from Charles River Laboratories or Jackson Laboratories. For the tumor challenge, 5×10^3 4T1 cells were injected in the mammary pad at the right flank of the mice, or 1×10^5 B16F10 cells were injected subcutaneously in the right flank of the mice. Tumor volumes were measured and calculated by (Length^2×Width/2) daily after the size was larger than 1 mm^3. Breeding pairs of BALB-neuT and FVB-neuN (FVB/N-Tg (MMTVneu) 202Mul) mice were obtained from Joseph Lustgarten, Mayo Clinic Arizona. Mice were monitored weekly for the tumor incidence after tumor size reached 1 mm^3. All experiments were performed in accordance with protocols approved by the Institutional Animal Care and Use Committee of Arizona State University. Statistical significance of differences was analyzed by a Student t-test.
Mice were genetically immunized by Gene Gun at 4-6 weeks with 100 ng of antigen(s) in pCMVi vectors, boosted twice (3-4 days apart) at 9-10 weeks with 1 μg of the same antigen(s), and boosted once at 13-14 weeks with protein. Genetic immunizations included adjuvants LTAB (0.5 μg) and CpG 2216 (5 μg). Protein boosts were 50 μg of KLH conjugated FS peptides (SMC1A-1^4, n=32; RBM FS, n=22; SLAIN2 FS, n=14 and pool of three FS neoantigens, n=37). The protein boost included 50 μg CpG 2216 and 50 μl alum in 100 μl PBS as the adjuvant. […]

Another test concerns B16-F10 cells. The test is described as follows: B16F10-C57BL6 mouse melanoma tumor model, genetic immunization and tumor challenge. Conditions: B16F10 melanoma in C57BL6, gene gun immunization, 1×10^5 cells, vs mock/control antigen CPV 172.

With AVLLMCQLYQPWMCKEYYRLL [ZDHHC17 FS], the tumor retardation entry in the test with 4T1 cells is given as “did not”.
Regarding IPRMQPQASANHCQLLKVMVA [SLAIN2 FS], the tumor retardation entry in the test on 4T1 cells is on record as “conferred tumor retardation”. For the same sequence, the “p, tumor free curve, 3FS pool vs individual FS antigen group” value in test [1] was 0.43.
In the case of “TAIIGPNGSGCSGVYCHEEPQGEDSSV [mSMC1A-1^4]”, in the test on B16-F10 cells, the tumor growth result was “significant retardation of tumor growth”. For the same sequence, the 4T1 tumor growth entry in the test with 4T1 cells (BALB/c, gene gun plus KLH-peptide boost, 5×10^3 4T1 cells, vs empty vector/KLH) is listed as “significantly retarded the 4T1 tumor growth”. Further, the “T-cell dependence of protection” value in the test with 4T1 cells (depletion of CD8 or CD4 T-cells in immunized BALB/c mice, 4T1) is recorded as “CD8 T cell dependent”.

The record behind these values is patent publication US11976274B2, “Methods and compositions for identifying neoantigens for use in treating and preventing cancer” (Arizona Board of Regents on Behalf of Arizona State …, priority 2019, dated 2024).
